According to patent publication US9802941B2, “Compounds and methods for inhibiting histone demethylases” (Gilead Sciences, Inc., priority 2014, dated 2017):
Where two headings read alike, the source gives them in different places.

Experiments:
Format in all cases: biochemical
[1] = biological target: T1, KDM4C (JMJD2C) (Homo sapiens, UniProt Q9H3R0); experiment: Histone lysine demethylase AlphaLISA assay, KDM4C
T1 construct: KDM4C; BRIC, Denmark; 1-349; E. coli; host or cells: E. coli
T1 sequence (Q9H3R0 1-349): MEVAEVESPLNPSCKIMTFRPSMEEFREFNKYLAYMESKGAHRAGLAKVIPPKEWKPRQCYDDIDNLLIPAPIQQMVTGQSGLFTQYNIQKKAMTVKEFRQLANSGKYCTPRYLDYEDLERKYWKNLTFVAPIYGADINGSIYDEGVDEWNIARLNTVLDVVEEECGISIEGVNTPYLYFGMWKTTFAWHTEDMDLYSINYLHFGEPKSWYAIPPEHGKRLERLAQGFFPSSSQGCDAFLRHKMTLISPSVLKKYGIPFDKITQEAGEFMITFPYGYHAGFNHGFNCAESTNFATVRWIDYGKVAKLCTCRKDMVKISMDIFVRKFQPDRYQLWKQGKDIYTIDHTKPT
Protocol: (§1) The compounds of the application, or a pharmaceutically acceptable salt, or solvate, or prodrug thereof, are tested in an in vitro AlphaLISA assay. Enzymes are dissolved in enzyme buffer and incubated before they are added to DMSO solutions of compounds of the application, or a pharmaceutically acceptable salt, or solvate, or prodrug thereof, in enzyme buffer. The reaction mixture is then incubated for an additional period of time before substrate solution is added and then the resulting mixture again incubated. Acceptor beads and suspended Epigenetic Buffer from stock are added and the suspension is again incubated before a suspension of streptavidin donor beads in Epigenetic Buffer is added. After an additional period of incubation, the plates are read.
(§2) The ability of compounds of the application to inhibit the histone lysine demethylase activity in vitro of different enzymes was determined.
(§3) The reaction mixture was incubated for another 10 minutes before 5 μL of substrate solution was added and the resulting mixture was then incubated at room temperature. […] After incubation at room temperature in the dark, the plates were read.
(§4) Enzyme Buffer: 50 mM Hepes (pH 7.4-8.0), 0.003-0.01% Tween-20, 0.1% BSA; 5 μM (NH4)2Fe(SO4)2.

[2] = biological target: T2, KDM2B (FBXL10) (Homo sapiens, UniProt Q8NHM5); experiment: Histone lysine demethylase AlphaLISA assay, KDM2B
T2 construct: KDM2B; BPS,; 1-650; Bac; purchased BPS Bioscience, US; host or cells: baculovirus system
T2 sequence (Q8NHM5 1-650): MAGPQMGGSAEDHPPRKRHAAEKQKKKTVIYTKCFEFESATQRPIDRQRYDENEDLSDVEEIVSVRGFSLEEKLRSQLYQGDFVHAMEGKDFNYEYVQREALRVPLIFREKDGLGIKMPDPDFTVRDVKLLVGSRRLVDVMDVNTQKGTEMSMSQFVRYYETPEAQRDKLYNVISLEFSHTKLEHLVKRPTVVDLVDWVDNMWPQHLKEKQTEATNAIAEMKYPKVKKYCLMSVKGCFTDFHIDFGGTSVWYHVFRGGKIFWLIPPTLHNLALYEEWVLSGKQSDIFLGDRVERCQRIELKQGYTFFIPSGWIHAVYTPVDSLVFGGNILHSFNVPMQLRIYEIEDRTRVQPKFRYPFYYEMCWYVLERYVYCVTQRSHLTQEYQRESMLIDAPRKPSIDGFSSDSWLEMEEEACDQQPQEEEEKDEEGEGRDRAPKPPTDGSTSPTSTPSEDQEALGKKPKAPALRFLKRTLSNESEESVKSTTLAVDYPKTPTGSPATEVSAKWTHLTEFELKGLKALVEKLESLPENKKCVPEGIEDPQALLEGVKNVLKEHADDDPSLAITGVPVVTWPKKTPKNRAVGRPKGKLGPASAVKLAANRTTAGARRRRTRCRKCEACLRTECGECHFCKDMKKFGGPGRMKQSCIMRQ
Protocol: as §1, §2, §3, §4

[3] = biological target: T3, PHF8 (KDM7) (Homo sapiens, UniProt Q9UPP1); experiment: Histone lysine demethylase AlphaLISA assay, PHF8
T3 construct: KDM7 (PHF8); BRIC; 1-1322; Bac
Protocol: as §1, §2, §3, §4

[4] = biological target: T4, KDM5B (PLU-1) (Homo sapiens, UniProt Q9UGL1); experiment: Histone lysine demethylase AlphaLISA assay, KDM5B
T4 construct: BRIC; 1-809; E. coli; host or cells: E. coli
T4 sequence (Q9UGL1 1-809): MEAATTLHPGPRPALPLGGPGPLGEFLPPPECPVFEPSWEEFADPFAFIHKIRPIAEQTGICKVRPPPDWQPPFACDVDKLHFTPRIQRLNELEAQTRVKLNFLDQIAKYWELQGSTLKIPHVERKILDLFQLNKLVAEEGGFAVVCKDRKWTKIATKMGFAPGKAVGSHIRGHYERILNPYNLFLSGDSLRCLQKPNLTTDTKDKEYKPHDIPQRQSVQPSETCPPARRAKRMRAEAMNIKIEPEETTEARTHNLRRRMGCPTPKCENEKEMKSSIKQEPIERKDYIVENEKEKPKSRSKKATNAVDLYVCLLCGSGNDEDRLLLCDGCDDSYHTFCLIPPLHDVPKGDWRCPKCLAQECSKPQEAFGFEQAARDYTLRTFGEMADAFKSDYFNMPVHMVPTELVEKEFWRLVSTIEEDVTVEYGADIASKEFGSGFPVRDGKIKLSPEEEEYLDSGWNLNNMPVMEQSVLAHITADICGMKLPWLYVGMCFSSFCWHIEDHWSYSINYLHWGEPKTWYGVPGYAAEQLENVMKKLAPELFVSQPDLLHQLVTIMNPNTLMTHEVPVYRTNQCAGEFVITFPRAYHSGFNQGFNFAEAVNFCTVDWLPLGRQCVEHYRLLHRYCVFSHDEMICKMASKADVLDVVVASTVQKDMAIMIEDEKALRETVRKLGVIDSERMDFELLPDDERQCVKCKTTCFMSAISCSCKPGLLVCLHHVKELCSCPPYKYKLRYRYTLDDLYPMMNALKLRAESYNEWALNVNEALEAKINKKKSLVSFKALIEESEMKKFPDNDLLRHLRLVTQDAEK
Protocol: as §1, §2, §3, §4

[5] = AlphaLISA assay, read-out: HDME Inhibition KDM4C (IC50)
[6] = AlphaLISA, in vitro, read-out: HDME Inhibition KDM4C
[7] = AlphaLISA, in vitro, read-out: HDME Inhibition KDM2B
[8] = AlphaLISA, in vitro, read-out: HDME Inhibition PHF8
[9] = AlphaLISA assay, read-out: HDME Inhibition KDM5B (IC50)
[10] = AlphaLISA, in vitro, read-out: HDME Inhibition KDM5B
[11] = AlphaLISA assay, read-out: HDME Inhibition KDM2B (IC50)
[12] = AlphaLISA assay, read-out: HDME Inhibition PHF8 (IC50)

Row | IC50 [1, 5] | IC50 [1, 6] | IC50 [2, 7] | IC50 [3, 8] | IC50 [4, 9] | IC50 [4, 10] | IC50 [4] | IC50 [2, 11] | IC50 [3, 12] | Structure (SMILES)
1 | > 10 µM | > 10 µM | 1.66 µM | 6.56 µM | > 10 µM | > 10 µM |  |  |  | CCn1cnc2cc(Cn3cnnc3CNCc3cc(C(=O)O)cc(C)n3)ccc21 [Compound 41, 2-{[({4-[(1-ethyl-1H-1,3-benzodiazol-5-yl)methyl]-4H-1,2,4-triazol-3-yl}methyl)amino]methyl}-6-methylpyridine-4-carboxylic acid]
2 | > 10 µM | > 10 µM | 0.659 µM | 0.859 µM | > 10 µM | > 10 µM |  |  |  | C/C=C/c1cnc(CNCc2cc(C(=O)O)cc(C)n2)n1Cc1ccc(F)cc1 [Compound 42, 2-{[({1-[(4-fluorophenyl)methyl]-5-[(1E)-prop-1-en-1-yl]-1H-imidazol-2-yl}methyl)amino]methyl}-6-methylpyridine-4-carboxylic acid]
3 | > 10 µM | > 10 µM | 0.442 µM | 0.869 µM | > 10 µM | > 10 µM |  |  |  | CSc1cnc(CNCc2cc(C(=O)O)cc(C)n2)n1Cc1ccc(F)cc1 [Compound 43, 2-{[({1-[(4-fluorophenyl)methyl]-5-(methylsulfanyl)-1H-imidazol-2-yl}methyl)amino]methyl}-6-methyl pyridine-4-carboxylic acid]
4 | > 10 µM | > 10 µM | 2.01 µM | 2.38 µM | > 10 µM | > 10 µM |  |  |  | Cc1cc(C(=O)O)cc(CNCc2nnc(CN(C)C)n2Cc2ccc(F)cc2)n1 [Compound 44, 2-{[({5-[(dimethylamino)methyl]-4-[(4-fluorophenyl)methyl]-4H-1,2,4-triazol-3-yl}methyl)amino]methyl}-6-methylpyridine-4-carboxylic acid]
5 | > 10 µM | > 10 µM | 0.501 µM | 0.491 µM | > 10 µM | > 10 µM |  |  |  | Cc1cc(C(=O)O)cc(CNCc2nnc(C3CCC3)n2Cc2ccc(F)cc2)n1 [Compound 45, 2-{[({5-cyclobutyl-4-[(4-fluorophenyl)methyl]-4H-1,2,4-triazol-3-yl}methyl)amino]methyl}-6-methylpyridine-4-carboxylic acid]
6 | > 10 µM | > 10 µM | 2.27 µM | 2.28 µM | > 10 µM | > 10 µM |  |  |  | Cc1cc(C(=O)O)cc(CNCc2nnc(CCN(C)C)n2Cc2ccc(F)cc2)n1 [Compound 46, 2-{[({5-[2-(dimethylamino)ethyl]-4-[(4-fluorophenyl)methyl]-4H-1,2,4-triazol-3-yl}methyl)amino]methyl}-6-methylpyridine-4-carboxylic acid]
7 | > 10 µM | > 10 µM | 1.26 µM | 0.391 µM |  |  | 4.08 µM |  |  | Cc1cc(C(=O)O)cc(CNCc2nccn2Cc2cccc(C#N)c2)n1 [Compound 47, 2-{[({1-[(3-cyanophenyl)methyl]-1H-imidazol-2-yl}methyl)amino]methyl}-6-methylpyridine-4-carboxylic acid]
8 | > 10 µM | > 10 µM | > 10 µM | > 10 µM | > 10 µM | > 10 µM |  | > 10 µM | > 10 µM | Cc1cc(C(=O)O)cc(CNCc2nccn2Cc2cccc(CN)c2)n1 [Compound 48, 2-({[(1-{[3-(aminomethyl)phenyl]methyl}-1H-imidazol-2-yl)methyl]amino}methyl)-6-methylpyridine-4-carboxylic acid]
9 |  |  | > 10 µM | > 10 µM | > 10 µM | > 10 µM |  | > 10 µM | > 10 µM | Cc1cc(C(=O)O)cc(CNCc2nnc(C)n2-c2cccc(Cl)c2)n1 [Compound 58, 2-[({[4-(3-chlorophenyl)-5-methyl-4H-1,2,4-triazol-3-yl]methyl}amino)methyl]-6-methylpyridine-4-carboxylic acid]
10 |  |  | 2.75 µM | > 10 µM |  |  |  |  | > 10 µM | Cc1cc(C(=O)O)cc(CNCCc2ncccc2C2=CCCC2)n1 [Compound 59, 2-[({2-[3-(cyclopent-1-en-1-yl)pyridin-2-yl]ethyl}amino)methyl]-6-methylpyridine-4-carboxylic acid]
11 |  |  | 1.86 µM | 3.81 µM | > 10 µM | > 10 µM |  |  |  | COc1ccc(CC(C)C)c(CNCc2cc(C(=O)O)cc(C)n2)n1 [Compound 74, 2-[({[6-methoxy-3-(2-methylpropyl)pyridin-2-yl]methyl}amino)methyl]-6-methylpyridine-4-carboxylic acid]
12 |  |  | 4.73 µM | > 10 µM | > 10 µM | > 10 µM |  |  | > 10 µM | Cc1cc(C(=O)O)cc(CNCc2nocc2COc2ccc(F)cc2)n1 [Compound 76, 2-[({[4-(4-fluorophenoxymethyl)-1,2-oxazol-3-yl]methyl}amino)methyl]-6-methylpyridine-4-carboxylic acid]
13 |  |  | 0.145 µM | 0.4 µM | > 10 µM | > 10 µM |  |  |  | COc1ccc(OCCc2ccccc2)c(CNCc2cc(C(=O)O)cc(C)n2)n1 [Compound 104, 2-[({[6-methoxy-3-(2-phenylethoxy)pyridin-2-yl]methyl}amino)methyl]-6-methylpyridine-4-carboxylic acid]
14 |  |  | 3.1 µM | 2.77 µM | > 10 µM | > 10 µM |  |  |  | COC(=O)c1cn(Cc2ccc(F)cc2)c(CNCc2cc(C(=O)O)cc(CO)n2)n1 [Compound 106, 2-{[({1-[(4-fluorophenyl)methyl]-4-(methoxycarbonyl)-1H-imidazol-2-yl}methyl)amino]methyl}-6-(hydroxymethyl)pyridine-4-carboxylic acid]
